# Data from ChEMBL document CHEMBL1131723, “Synthesis and structure-activity relationship of novel glycylcycline derivatives leading to the discovery of GAR-936” (1999).
# Experiments:
# Assay type in all cases: functional
# [1] = system: Escherichia coli; experiment: In vitro antibacterial activity against Escherichia coli J3272 Tet C
# [2] = system: Escherichia coli; experiment: In vitro antibacterial activity against Escherichia coli PRP1 Tet A
# [3] = system: Staphylococcus aureus; experiment: In vitro antibacterial activity against Staphylococcus aureus UBMS 88-7 Tet K
# [4] = system: Escherichia coli; experiment: In vitro antibacterial activity against Escherichia coli UBMS 88-1 Tet B
# [5] = system: Escherichia coli; experiment: In vitro antibacterial activity against Escherichia coli UBMS 90-4 Tet M
# [6] = system: Staphylococcus aureus; experiment: In vitro antibacterial activity against Staphylococcus aureus Smith sensitive
# [7] = system: Enterococcus; experiment: In vitro antibacterial activity against Enterococcus ATCC 29212
# [8] = system: Staphylococcus aureus; experiment: In vitro antibacterial activity against Staphylococcus aureus UBMS 90-3 sensitive
# [9] = system: Staphylococcus aureus; experiment: In vitro antibacterial activity against Staphylococcus aureus UBMS 90-1 Tet M
# [10] = system: Escherichia coli; experiment: In vitro antibacterial activity against Escherichia coli UBMS 90-5 sensitive
# [11] = system: Escherichia coli; experiment: In vitro antibacterial activity against Escherichia coli J3272 Tet D
Structure (SMILES),MIC [1] [µg/mL],MIC [2] [µg/mL],MIC [3] [µg/mL],MIC [4] [µg/mL],MIC [5] [µg/mL],MIC [6] [µg/mL],MIC [7] [µg/mL],MIC [8] [µg/mL],MIC [9] [µg/mL],MIC [10] [µg/mL],MIC [11] [µg/mL]
CN(C)c1cc(NC(=O)CN2CCSCC2)c(O)c2c1CC1CC3[C@H](N(C)C)C(=O)C(C(N)=O)=C(O)[C@@]3(O)C(=O)C1=C2O (stereo not given in full),> 32,> 32,4,> 32,> 32,0.5,0.25,1,1,> 32,16
CCCCCCNCC(=O)Nc1cc(N(C)C)c2c(c1O)C(=O)C1=C(O)[C@]3(O)C(O)=C(C(N)=O)C(=O)[C@@H](N(C)C)C3CC1C2 (stereo not given in full),0.5,0.5,2,0.5,0.25,0.12,0.12,0.06,0.25,0.25,0.12
CN(C)c1cc(NC(=O)CNC2CC2)c(O)c2c1CC1CC3[C@H](N(C)C)C(=O)C(C(N)=O)=C(O)[C@@]3(O)C(=O)C1=C2O (stereo not given in full),8,32,4,4,2,0.25,0.25,0.5,0.5,2,2
CCCCNCC(=O)Nc1cc(N(C)C)c2c(c1O)C(=O)C1=C(O)[C@]3(O)C(O)=C(C(N)=O)C(=O)[C@@H](N(C)C)C3CC1C2 (stereo not given in full),0.5,1,2,0.5,0.25,0.12,0.12,0.25,0.5,0.5,0.25
CN(C)c1cc(NC(=O)CN2CCCCC2)c(O)c2c1CC1CC3[C@H](N(C)C)C(=O)C(C(N)=O)=C(O)[C@@]3(O)C(=O)C1=C2O (stereo not given in full),0.25,1,0.25,0.5,0.5,0.12,0.06,0.12,0.25,0.5,0.5
CN(C)c1cc(NC(=O)CNC2CC3CCC2C3)c(O)c2c1CC1CC3[C@H](N(C)C)C(=O)C(C(N)=O)=C(O)[C@@]3(O)C(=O)C1=C2O (stereo not given in full),0.5,1,0.5,0.5,0.5,0.25,0.12,0.25,0.5,0.5,0.25
CCCCCCCCCCCNCC(=O)Nc1cc(N(C)C)c2c(c1O)C(=O)C1=C(O)[C@]3(O)C(O)=C(C(N)=O)C(=O)[C@@H](N(C)C)C3CC1C2 (stereo not given in full),32,32,2,32,32,0.5,2,0.5,16,16,32
CN(C)c1cc(NC(=O)CNC2CCCCCCC2)c(O)c2c1CC1CC3[C@H](N(C)C)C(=O)C(C(N)=O)=C(O)[C@@]3(O)C(=O)C1=C2O (stereo not given in full),2,2,0.5,4,2,0.5,0.25,0.25,1,4,0.5
CN(C)c1cc(NC(=O)CNCC2CC2)c(O)c2c1CC1CC3[C@H](N(C)C)C(=O)C(C(N)=O)=C(O)[C@@]3(O)C(=O)C1=C2O (stereo not given in full),0.5,4,4,0.5,0.5,0.5,0.25,0.5,1,0.5,0.25
CN(C)c1cc(NC(=O)CNCc2ccccc2)c(O)c2c1CC1CC3[C@H](N(C)C)C(=O)C(C(N)=O)=C(O)[C@@]3(O)C(=O)C1=C2O (stereo not given in full),2,4,2,2,0.5,0.25,0.25,0.25,0.5,0.5,0.5
CN(C)c1cc(NC(=O)CNCc2ccccn2)c(O)c2c1CC1CC3[C@H](N(C)C)C(=O)C(C(N)=O)=C(O)[C@@]3(O)C(=O)C1=C2O (stereo not given in full),16,32,32,16,8,4,2,4,8,16,8
CN(C)c1cc(NC(=O)CBr)c(O)c2c1CC1CC3[C@H](N(C)C)C(=O)C(C(N)=O)=C(O)[C@@]3(O)C(=O)C1=C2O (stereo not given in full),> 32,> 32,2,> 32,–,0.5,0.5,0.5,1,16,32
CN(C)c1cc(NC(=O)CN2CCCC2)c(O)c2c1CC1CC3[C@H](N(C)C)C(=O)C(C(N)=O)=C(O)[C@@]3(O)C(=O)C1=C2O (stereo not given in full),0.25,0.5,0.5,0.25,0.25,0.12,0.12,0.12,0.12,0.25,0.12
CNCC(=O)Nc1cc(N(C)C)c2c(c1O)C(=O)C1=C(O)[C@]3(O)C(O)=C(C(N)=O)C(=O)[C@@H](N(C)C)C3CC1C2 (stereo not given in full),8,16,16,1,–,0.5,0.5,0.5,1,1,0.5
CN(C)CC(=O)Nc1cc(N(C)C)c2c(c1O)C(=O)C1=C(O)[C@]3(O)C(O)=C(C(N)=O)C(=O)[C@@H](N(C)C)C3CC1C2 (stereo not given in full),1,1,0.25,0.25,0.25,0.06,0.06,0.03,0.25,0.25,0.12
CN(C)c1cc(NC(=O)CN2CCOCC2)c(O)c2c1CC1CC3[C@H](N(C)C)C(=O)C(C(N)=O)=C(O)[C@@]3(O)C(=O)C1=C2O (stereo not given in full),> 32,> 32,32,> 32,–,2,2,2,4,> 32,32
CN(C)c1cc(NC(=O)Cn2ccnc2)c(O)c2c1CC1CC3[C@H](N(C)C)C(=O)C(C(N)=O)=C(O)[C@@]3(O)C(=O)C1=C2O (stereo not given in full),> 32,> 32,32,> 32,> 32,4,4,4,32,> 32,32
CN(C)c1cc(NC(=O)CN2CCC2)c(O)c2c1CC1CC3[C@H](N(C)C)C(=O)C(C(N)=O)=C(O)[C@@]3(O)C(=O)C1=C2O (stereo not given in full),0.5,1,2,0.5,0.25,0.25,0.25,0.12,0.25,0.25,0.12
CN(C)c1cc(NC(=O)CNC2CCCC2)c(O)c2c1CC1CC3[C@H](N(C)C)C(=O)C(C(N)=O)=C(O)[C@@]3(O)C(=O)C1=C2O (stereo not given in full),0.25,1,2,0.25,0.25,0.25,0.12,0.12,0.25,0.25,0.12
CCCNCC(=O)Nc1cc(N(C)C)c2c(c1O)C(=O)C1=C(O)[C@]3(O)C(O)=C(C(N)=O)C(=O)[C@@H](N(C)C)C3CC1C2 (stereo not given in full),0.5,2,2,0.5,0.25,0.25,0.25,0.25,0.5,0.5,0.12
CN(C)c1ccc(O)c2c1C[C@H]1C[C@H]3[C@H](N(C)C)C(O)=C(C(N)=O)C(=O)[C@@]3(O)C(O)=C1C2=O [MINOCYCLINE],32,> 32,16,> 32,16,2,4,2,8,16,4
CN(C)[C@@H]1C(O)=C(C(N)=O)C(=O)[C@@]2(O)C(O)=C3C(=O)c4c(O)cccc4[C@@](C)(O)[C@H]3C[C@@H]12 [TETRACYCLINE],> 32,32,> 32,> 32,> 32,0.25,16,0.25,> 32,1,8
CN(C)c1cc(NC(=O)CNC(C)(C)C)c(O)c2c1C[C@H]1C[C@H]3[C@H](N(C)C)C(O)=C(C(N)=O)C(=O)[C@@]3(O)C(O)=C1C2=O [TIGECYCLINE],0.25,0.25,0.5,0.5,0.12,0.25,0.12,0.25,0.12,0.25,0.12
